Measured values: ChEMBL document CHEMBL1909046, “DrugMatrix in vitro pharmacology data”

How the values were obtained:
[1] = target: 5-hydroxytryptamine receptor 6 (Homo sapiens, UniProt P50406); format: cell membranes, HeLa, Membrane; details: for Ki: read-out: Ki; for all read-outs here: in other assays of this panel Not Active means under 50% inhibition at 10 µM
[2] = DRUGMATRIX: Glutamate, NMDA, Phencyclidine radioligand binding (ligand: [3H] TCP); format: cell membranes, Rattus norvegicus, Wistar, Cerebral cortex, Membrane; details: Not Active = under 50% inhibition at 10 µM
Nitric oxide synthase 1 = Nitric oxide synthase 1 (Rattus norvegicus, UniProt P29476); format: tissue-based, Cerebellum; note: in other assays of this panel Not Active means under 50% inhibition at 10 µM
[3] = target: C-C chemokine receptor type 5 (Homo sapiens, UniProt P51681); format: cell membranes, Membrane; details: hek293; note: in other assays of this panel Not Active means under 50% inhibition at 10 µM
[4] = DRUGMATRIX: Imidazoline I2, Central radioligand binding (ligand: [3H] Idazoxan); format: cell membranes, Rattus norvegicus, Wistar, Cerebral cortex, Membrane; details: Not Active = under 50% inhibition at 10 µM
[5] = target: C-C chemokine receptor type 2 (Homo sapiens, UniProt P41597); format: cell membranes, Membrane; details: cho-k1; note: in other assays of this panel Not Active means under 50% inhibition at 10 µM
Estrogen receptor = target: T1, Estrogen receptor (Homo sapiens, UniProt P03372); details: sf9; note: in other assays of this panel Not Active means under 50% inhibition at 10 µM
T1 sequence (P03372 whole entry): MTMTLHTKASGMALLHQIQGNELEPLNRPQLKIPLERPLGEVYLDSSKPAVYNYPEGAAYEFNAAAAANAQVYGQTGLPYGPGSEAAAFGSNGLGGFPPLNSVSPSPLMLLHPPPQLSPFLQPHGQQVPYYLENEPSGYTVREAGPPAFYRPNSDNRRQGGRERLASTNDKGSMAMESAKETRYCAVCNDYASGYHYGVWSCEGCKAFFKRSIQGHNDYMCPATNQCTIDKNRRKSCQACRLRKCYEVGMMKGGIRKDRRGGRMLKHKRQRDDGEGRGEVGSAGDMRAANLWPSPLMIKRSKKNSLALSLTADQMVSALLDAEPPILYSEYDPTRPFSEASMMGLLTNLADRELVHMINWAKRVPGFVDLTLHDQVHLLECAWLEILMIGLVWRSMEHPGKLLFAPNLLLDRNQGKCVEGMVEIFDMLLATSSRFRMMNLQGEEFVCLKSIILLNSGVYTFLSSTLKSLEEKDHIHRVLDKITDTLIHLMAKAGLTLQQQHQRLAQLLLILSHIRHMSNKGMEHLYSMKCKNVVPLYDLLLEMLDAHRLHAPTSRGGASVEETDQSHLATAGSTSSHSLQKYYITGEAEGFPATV

Sequence of 5-hydroxytryptamine receptor 6 (P50406 whole entry): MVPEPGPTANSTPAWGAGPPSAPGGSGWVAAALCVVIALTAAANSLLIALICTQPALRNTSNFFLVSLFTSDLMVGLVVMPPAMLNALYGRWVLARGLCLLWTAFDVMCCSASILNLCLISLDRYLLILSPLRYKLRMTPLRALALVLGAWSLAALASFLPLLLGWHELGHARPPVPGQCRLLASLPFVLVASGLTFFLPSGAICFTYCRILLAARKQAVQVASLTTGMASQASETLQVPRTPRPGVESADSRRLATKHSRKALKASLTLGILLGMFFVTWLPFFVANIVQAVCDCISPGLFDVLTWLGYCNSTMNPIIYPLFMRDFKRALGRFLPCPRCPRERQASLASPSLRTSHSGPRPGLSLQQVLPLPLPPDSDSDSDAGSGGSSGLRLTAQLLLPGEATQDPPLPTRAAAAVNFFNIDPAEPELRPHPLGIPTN
Sequence of C-C chemokine receptor type 5 (P51681 whole entry): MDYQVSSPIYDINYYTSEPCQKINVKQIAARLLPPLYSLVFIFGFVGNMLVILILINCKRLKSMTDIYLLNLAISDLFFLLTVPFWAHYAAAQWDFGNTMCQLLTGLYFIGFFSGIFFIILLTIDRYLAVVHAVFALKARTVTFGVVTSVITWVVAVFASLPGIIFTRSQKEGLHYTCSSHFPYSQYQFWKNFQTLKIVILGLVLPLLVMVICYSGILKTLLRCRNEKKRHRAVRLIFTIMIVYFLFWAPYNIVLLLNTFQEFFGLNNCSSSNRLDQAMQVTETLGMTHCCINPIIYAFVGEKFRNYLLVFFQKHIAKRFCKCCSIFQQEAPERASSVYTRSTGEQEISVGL
Sequence of Nitric oxide synthase 1 (P29476 whole entry): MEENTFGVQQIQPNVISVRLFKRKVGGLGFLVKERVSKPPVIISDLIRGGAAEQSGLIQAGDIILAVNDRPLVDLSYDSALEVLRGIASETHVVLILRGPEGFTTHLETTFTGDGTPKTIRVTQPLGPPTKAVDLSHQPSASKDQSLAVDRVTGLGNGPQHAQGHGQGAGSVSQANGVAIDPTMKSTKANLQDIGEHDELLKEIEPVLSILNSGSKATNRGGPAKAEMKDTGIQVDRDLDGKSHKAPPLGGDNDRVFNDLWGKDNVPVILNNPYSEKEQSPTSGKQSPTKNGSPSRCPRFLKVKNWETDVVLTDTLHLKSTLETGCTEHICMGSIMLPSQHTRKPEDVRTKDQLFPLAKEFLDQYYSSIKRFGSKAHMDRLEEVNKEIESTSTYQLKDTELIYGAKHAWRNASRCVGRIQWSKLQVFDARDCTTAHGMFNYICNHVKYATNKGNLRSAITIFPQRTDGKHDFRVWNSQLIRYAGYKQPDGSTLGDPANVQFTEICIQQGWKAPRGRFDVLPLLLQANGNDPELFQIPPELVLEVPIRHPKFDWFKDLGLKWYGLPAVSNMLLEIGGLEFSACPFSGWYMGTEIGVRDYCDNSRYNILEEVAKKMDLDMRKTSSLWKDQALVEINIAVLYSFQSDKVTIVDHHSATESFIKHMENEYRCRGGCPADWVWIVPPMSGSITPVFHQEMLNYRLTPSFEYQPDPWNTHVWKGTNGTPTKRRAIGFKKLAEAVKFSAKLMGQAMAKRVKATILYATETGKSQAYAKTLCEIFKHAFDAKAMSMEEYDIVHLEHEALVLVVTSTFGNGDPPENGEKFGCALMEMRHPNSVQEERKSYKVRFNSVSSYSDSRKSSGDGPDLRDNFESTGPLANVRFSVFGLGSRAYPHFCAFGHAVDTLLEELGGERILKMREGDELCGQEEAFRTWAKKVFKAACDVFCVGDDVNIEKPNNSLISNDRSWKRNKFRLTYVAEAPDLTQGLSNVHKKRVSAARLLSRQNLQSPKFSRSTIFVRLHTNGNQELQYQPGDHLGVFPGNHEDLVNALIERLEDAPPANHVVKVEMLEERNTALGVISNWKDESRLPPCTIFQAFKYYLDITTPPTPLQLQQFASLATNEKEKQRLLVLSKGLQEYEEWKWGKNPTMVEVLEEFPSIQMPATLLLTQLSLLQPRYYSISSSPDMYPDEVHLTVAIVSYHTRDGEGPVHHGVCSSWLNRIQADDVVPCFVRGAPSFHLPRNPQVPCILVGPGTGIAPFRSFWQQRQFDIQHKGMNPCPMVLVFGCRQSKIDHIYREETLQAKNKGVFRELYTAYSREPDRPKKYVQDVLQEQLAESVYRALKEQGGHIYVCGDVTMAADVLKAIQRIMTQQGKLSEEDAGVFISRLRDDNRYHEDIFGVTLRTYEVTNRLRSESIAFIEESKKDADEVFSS
Sequence of C-C chemokine receptor type 2 (P41597 whole entry): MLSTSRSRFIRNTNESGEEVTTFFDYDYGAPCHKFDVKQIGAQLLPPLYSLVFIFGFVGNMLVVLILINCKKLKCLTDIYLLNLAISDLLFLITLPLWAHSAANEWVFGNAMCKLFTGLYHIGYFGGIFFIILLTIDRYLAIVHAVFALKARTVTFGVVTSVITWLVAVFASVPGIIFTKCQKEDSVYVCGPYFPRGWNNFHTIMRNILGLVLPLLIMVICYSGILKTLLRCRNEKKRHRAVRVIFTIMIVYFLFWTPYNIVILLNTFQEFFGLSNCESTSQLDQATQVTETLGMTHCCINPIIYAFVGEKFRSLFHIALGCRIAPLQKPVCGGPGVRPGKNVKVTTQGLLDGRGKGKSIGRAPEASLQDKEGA

SMILES	IC50 ([1]; hela)	IC50 [2]	Ki [2]	IC50 (Nitric oxide synthase 1)	IC50 [3]	IC50 [4]	Ki [4]	IC50 [5]	IC50 (Estrogen receptor)	IC50 ([1]; read-out: IC50) [µM]	Ki [1] [µM]
CCC1=C(C)CN(C(=O)NCCc2ccc(S(=O)(=O)NC(=O)N[C@H]3CC[C@H](C)CC3)cc2)C1=O [GLIMEPIRIDE]	Not Active	Not Active	Not Active	Not Active	Not Active	Not Active	Not Active	Not Active	Not Active	–	–
Nc1cc(-c2ccncc2)c[nH]c1=O [INAMRINONE]	Not Active	Not Active	Not Active	Not Active	Not Active	Not Active	Not Active	Not Active	Not Active	–	–
CCCCC1=NC2(CCCC2)C(=O)N1Cc1ccc(-c2ccccc2-c2nnn[nH]2)cc1 [IRBESARTAN]	Not Active	Not Active	Not Active	Not Active	Not Active	Not Active	Not Active	Not Active	Not Active	–	–
CN1CCC(=C2c3ccccc3CC(=O)c3sccc32)CC1 [KETOTIFEN]	–	Not Active	Not Active	Not Active	Not Active	Not Active	Not Active	Not Active	Not Active	1.14	0.53
N[C@@H](Cn1ccc(=O)c(O)c1)C(=O)O [L-MIMOSINE]	Not Active	Not Active	Not Active	Not Active	Not Active	Not Active	Not Active	Not Active	Not Active	–	–
CCn1cc(C(=O)O)c(=O)c2cc(F)c(N3CCNC(C)C3)c(F)c21 (stereo not given) [LOMEFLOXACIN]	Not Active	Not Active	Not Active	Not Active	Not Active	Not Active	Not Active	Not Active	Not Active	–	–
CN1CCCC(CN2c3ccccc3Sc3ccccc32)C1 (stereo not given) [MEPAZINE]	–	Not Active	Not Active	Not Active	Not Active	Not Active	Not Active	Not Active	Not Active	1.84	0.853
Cc1cccc(C)c1NC(=O)C1CCCCN1C (stereo not given) [MEPIVACAINE]	Not Active	Not Active	Not Active	Not Active	Not Active	Not Active	Not Active	Not Active	Not Active	–	–
CC(C)(C)NCC(O)COc1cccc2c1CC(O)C(O)C2 (stereo not given) [NADOLOL]	Not Active	Not Active	Not Active	Not Active	Not Active	Not Active	Not Active	Not Active	Not Active	–	–
C[C@]12CC[C@H]3[C@@H](CCC4=CC(=O)CC[C@@H]43)[C@@H]1CC[C@@H]2O [NANDROLONE]	Not Active	Not Active	Not Active	Not Active	Not Active	Not Active	Not Active	Not Active	Not Active	–	–
C[C@@H]1C/C=C/C=C/C=C/C=C/[C@H](O[C@@H]2O[C@H](C)[C@@H](O)[C@H](N)[C@@H]2O)C[C@@H]2O[C@](O)(C[C@@H](O)C[C@H]3O[C@@H]3/C=C/C(=O)O1)C[C@H](O)[C@H]2C(=O)O [NATAMYCIN]	Not Active	Not Active	Not Active	Not Active	Not Active	Not Active	Not Active	Not Active	Not Active	–	–
CN(C)C(=O)Oc1cccc([N+](C)(C)C)c1.[Br-] [NEOSTIGMINE BROMIDE]	Not Active	Not Active	Not Active	Not Active	Not Active	Not Active	Not Active	Not Active	Not Active	–	–
